Test: Treatment-emergent adverse events, three Phase 3 double-blind studies, LMTM pooled safety population
Assay type: in vivo, human
Description: Three Phase 3, double-blind, controlled studies of LMTM have been completed (one each in subjects with mild and mild to moderate AD and one in subjects with bvFTD). Results of the AD studies have been published (Gauthier et al., 2016; Wilcock et al., 2018).
In these three studies, 1897 subjects received at least one dose of LMTM (Safety Population [Five additional subjects with AD, participating at one site in Study TRx-237-005, received a dose of study drug but were excluded from all analyses due to GCP violations], 1679 subjects with AD and 218 subjects with bvFTD). Of these, 860 subjects received the control (LMTM 8 mg/day, 750 with AD and 110 with bvFTD) and 1037 subjects received at least one dose of LMTM in the higher doses of 150 to 250 mg/day (929 with AD and 108 with bvFTD).
The incidence of the most common TEAEs are summarised by dose in the following Table EX1. This includes TEAEs that occurred at an incidence of ≥2.0% either in subjects randomised to LMTM 8 mg/day or higher doses (150 to 250 mg/day). The subset of TEAEs that were severe in intensity are also included.
The TEAEs are further analysed by using groupings of related MedDRA (Medical Dictionary for Regulatory Activities) preferred terms to better estimate the incidence of potentially treatment related adverse events. The incidence of all groupings for subjects categorised by dose (8 mg/day versus higher doses of 150 to 250 mg/day) is shown in the following Table EX2: […]

[1] = LMTM 8 mg/day (N = 860), Severe Intensity
[2] = subjects treated with LMTM 8 mg/day

## CN(C)c1ccc2c(c1)Sc1cc(N(C)C)ccc1N2 [LMTM, leuco-methylthioninium bis(hydromethanesulfonate)]
LMTM 8 mg/day (N = 860)
  Grouped TEAE incidence: Behavioral Symptoms: 114 (13.3%) n (%)
  Grouped TEAE incidence: Falls and Related Terms: 188 (21.9%) n (%)
  Grouped TEAE incidence: Hepatic Function Impairment: 13 (1.5%) n (%)
  Grouped TEAE incidence: Hypersensitivity: 42 (4.9%) n (%)
  Grouped TEAE incidence: Ischaemic Events, Inclusive of Myocardial Infarction: 20 (2.3%) n (%)
  Grouped TEAE incidence: Psychotic Symptoms: 28 (3.3%) n (%)
  Grouped TEAE incidence: Renal Function Impairment: 29 (3.4%) n (%)
  Grouped TEAE incidence: Renal and Urinary Disorders (Including Infections): 135 (15.7%) n (%)
  Grouped TEAE incidence: Sleep Disorders: 41 (4.8%) n (%)
  Grouped TEAE incidence: Targeted Gastrointestinal Events: 183 (21.3%) n (%)
LMTM 8 mg/day (N = 860), All
  No. (%) of Subjects Reporting at Least One TEAE: 720 (83.7%) n (%)
  TEAE incidence: Abdominal pain: 16 (1.9%) n (%)
  TEAE incidence: Abdominal pain upper: 10 (1.2%) n (%)
  TEAE incidence: Agitation: 46 (5.3%) n (%)
  TEAE incidence: Anaemia: 19 (2.2%) n (%)
  TEAE incidence: Anxiety: 52 (6.0%) n (%)
  TEAE incidence: Arthralgia: 28 (3.3%) n (%)
  TEAE incidence: Atrial fibrillation: 17 (2.0%) n (%)
  TEAE incidence: Back pain: 31 (3.6%) n (%)
  TEAE incidence: Blood creatine phosphokinase increased: 18 (2.1%) n (%)
  TEAE incidence: Blood folate decreased: 45 (5.2%) n (%)
  TEAE incidence: Bronchitis: 27 (3.1%) n (%)
  TEAE incidence: Cerebral microhaemorrhage: 24 (2.8%) n (%)
  TEAE incidence: Confusional state: 22 (2.6%) n (%)
  TEAE incidence: Constipation: 23 (2.7%) n (%)
  TEAE incidence: Contusion: 24 (2.8%) n (%)
  TEAE incidence: Cough: 37 (4.3%) n (%)
  TEAE incidence: Decreased appetite: 13 (1.5%) n (%)
  TEAE incidence: Dehydration: 17 (2.0%) n (%)
  TEAE incidence: Depression: 41 (4.8%) n (%)
  TEAE incidence: Diarrhoea: 109 (12.7%) n (%)
  TEAE incidence: Dizziness: 49 (5.7%) n (%)
  TEAE incidence: Dysuria: 6 (0.7%) n (%)
  TEAE incidence: Fall: 90 (10.5%) n (%)
  TEAE incidence: Fatigue: 26 (3.0%) n (%)
  TEAE incidence: Folate deficiency: 17 (2.0%) n (%)
  TEAE incidence: Haemoglobin decreased: 6 (0.7%) n (%)
  TEAE incidence: Hallucination: 13 (1.5%) n (%)
  TEAE incidence: Headache: 55 (6.4%) n (%)
  TEAE incidence: Hypertension: 20 (2.3%) n (%)
  TEAE incidence: Insomnia: 29 (3.4%) n (%)
  TEAE incidence: Laceration: 17 (2.0%) n (%)
  TEAE incidence: Micturition urgency: 11 (1.3%) n (%)
  TEAE incidence: Nasopharyngitis: 40 (4.7%) n (%)
  TEAE incidence: Nausea: 39 (4.5%) n (%)
  TEAE incidence: Oedema peripheral: 19 (2.2%) n (%)
  TEAE incidence: Pain in extremity: 19 (2.2%) n (%)
  TEAE incidence: Pollakiuria: 19 (2.2%) n (%)
  TEAE incidence: Rash: 21 (2.4%) n (%)
  TEAE incidence: Suicidal ideation: 27 (3.1%) n (%)
  TEAE incidence: Syncope: 26 (3.0%) n (%)
  TEAE incidence: Tremor: 20 (2.3%) n (%)
  TEAE incidence: Upper respiratory tract infection: 35 (4.1%) n (%)
  TEAE incidence: Urinary incontinence: 34 (4.0%) n (%)
  TEAE incidence: Urinary tract infection: 76 (8.8%) n (%)
  TEAE incidence: Vitamin B12 decreased: 23 (2.7%) n (%)
  TEAE incidence: Vomiting: 20 (2.3%) n (%)
  TEAE incidence: Weight decreased: 18 (2.1%) n (%)
[1]
  No. (%) of Subjects Reporting at Least One TEAE: 86 (10.0%) n (%)
  TEAE incidence: Abdominal pain: 1 (0.1%) n (%)
  TEAE incidence: Abdominal pain upper: 1 (0.1%) n (%)
  TEAE incidence: Agitation: 1 (0.1%) n (%)
  TEAE incidence: Anaemia: 1 (0.1%) n (%)
  TEAE incidence: Anxiety: 0 n (%)
  TEAE incidence: Arthralgia: 0 n (%)
  TEAE incidence: Atrial fibrillation: 3 (0.3%) n (%)
  TEAE incidence: Back pain: 1 (0.1%) n (%)
  TEAE incidence: Blood creatine phosphokinase increased: 0 n (%)
  TEAE incidence: Blood folate decreased: 0 n (%)
  TEAE incidence: Bronchitis: 0 n (%)
  TEAE incidence: Cerebral microhaemorrhage: 0 n (%)
  TEAE incidence: Confusional state: 2 (0.2%) n (%)
  TEAE incidence: Constipation: 2 (0.2%) n (%)
  TEAE incidence: Contusion: 0 n (%)
  TEAE incidence: Cough: 0 n (%)
  TEAE incidence: Decreased appetite: 0 n (%)
  TEAE incidence: Dehydration: 4 (0.5%) n (%)
  TEAE incidence: Depression: 0 n (%)
  TEAE incidence: Diarrhoea: 5 (0.6%) n (%)
  TEAE incidence: Dizziness: 3 (0.3%) n (%)
  TEAE incidence: Dysuria: 0 n (%)
  TEAE incidence: Fall: 4 (0.5%) n (%)
  TEAE incidence: Fatigue: 0 n (%)
  TEAE incidence: Folate deficiency: 0 n (%)
  TEAE incidence: Haemoglobin decreased: 0 n (%)
  TEAE incidence: Hallucination: 0 n (%)
  TEAE incidence: Headache: 1 (0.1%) n (%)
  TEAE incidence: Hypertension: 0 n (%)
  TEAE incidence: Insomnia: 0 n (%)
  TEAE incidence: Laceration: 0 n (%)
  TEAE incidence: Micturition urgency: 0 n (%)
  TEAE incidence: Nasopharyngitis: 0 n (%)
  TEAE incidence: Nausea: 1 (0.1%) n (%)
  TEAE incidence: Oedema peripheral: 0 n (%)
  TEAE incidence: Pain in extremity: 1 (0.1%) n (%)
  TEAE incidence: Pollakiuria: 0 n (%)
  TEAE incidence: Rash: 0 n (%)
  TEAE incidence: Suicidal ideation: 2 (0.2%) n (%)
  TEAE incidence: Syncope: 1 (0.1%) n (%)
  TEAE incidence: Tremor: 0 n (%)
  TEAE incidence: Upper respiratory tract infection: 0 n (%)
  TEAE incidence: Urinary incontinence: 0 n (%)
  TEAE incidence: Urinary tract infection: 1 (0.1%) n (%)
  TEAE incidence: Vitamin B12 decreased: 0 n (%)
  TEAE incidence: Vomiting: 0 n (%)
  TEAE incidence: Weight decreased: 0 n (%)
[2]
  Grouped TEAE incidence: Falls and Related Terms: 22%
  Grouped TEAE incidence: GI events: 21%
  Grouped TEAE incidence: Renal and Urinary Disorders (Including Infections): 16%
  Grouped TEAE incidence: behavioural symptoms: 13%
  Grouped TEAE incidence: terms indicative of anaemia: 13%
